This series in a line: method code SF-AS, from DOI: 10.1248/cpb.24.61. The settings on record: pH 7.4.

One may read the logD as lipophilicity at a set pH, counting ionised and neutral species. A lower logD goes with a more hydrophilic compound. As to `CCC(C(=O)c1c(C)n(C)n(-c2ccccc2)c1=O)N(C)C` (configuration not stated), the logD is -0.24.
With `Cc1c(C(=O)C(C)N(C)C)c(=O)n(-c2ccccc2)n1C` (configuration not stated), the logD is -0.78.
Compound `Cc1c(NC(N)=O)c(=O)n(-c2ccccc2)n1C` returned a logD of -0.92.
`Cc1c(C(=O)CN(C)C)c(=O)n(-c2ccccc2)n1C` came in with a pH-dependent lipophilicity (logD) of -0.95.
`Cc1c(NC(=O)CN(C)C)c(=O)n(-c2ccccc2)n1C`: the logD is -0.37.
Turning to `Cc1c(N(C)C(C)C(=O)N(C)C)c(=O)n(-c2ccccc2)n1C` (configuration not stated), the logD came out at 0.69.
`Cc1c(NC(C)C(=O)N(C)C)c(=O)n(-c2ccccc2)n1C` (configuration not stated): the pH-dependent lipophilicity (logD) was 0.35.
